The values that follow come from US10246453B2, “Benzenesulfonamide compounds and their use as therapeutic agents” (Xenon Pharmaceuticals Inc., priority 2016, dated 2019).

Data set [1] concerns the target T1, NaV1.5 (Homo sapiens (Human), UniProt Q14524). As to the kind of experiment: in vitro. The conditions noted are these: pH 7.4.
The target of data set [2] is T1, NaV1.5. The experiment in a line: Sodium Influx Assay (Flux), NaV1.5. To be noted: read-out: Flux NaV1.5 IC50; Trex HEK293 cells, ANG2 dye; arithmetic mean.
The target of data set [3] is T2, NaV1.1 (Homo sapiens (Human), UniProt P35498). As to the kind of experiment: Electrophysiological Assay (EP), patch voltage clamp, NaV1.1. Format: cell-based. The conditions noted are these: HEK-293 cells, whole-cell patch clamp, inactivated state; arithmetic mean.
In data set [4] the target is T3, NaV1.6 (Homo sapiens (Human), UniProt Q9UQD0). As to the kind of experiment: Electrophysiological Assay (EP), patch voltage clamp, NaV1.6. Format: cell-based. To be noted: HEK-293 cells, whole-cell patch clamp, inactivated state; arithmetic mean. In general terms: In patch-clamp work, channel activity is measured electrically.
T3 sequence (Q9UQD0 whole entry): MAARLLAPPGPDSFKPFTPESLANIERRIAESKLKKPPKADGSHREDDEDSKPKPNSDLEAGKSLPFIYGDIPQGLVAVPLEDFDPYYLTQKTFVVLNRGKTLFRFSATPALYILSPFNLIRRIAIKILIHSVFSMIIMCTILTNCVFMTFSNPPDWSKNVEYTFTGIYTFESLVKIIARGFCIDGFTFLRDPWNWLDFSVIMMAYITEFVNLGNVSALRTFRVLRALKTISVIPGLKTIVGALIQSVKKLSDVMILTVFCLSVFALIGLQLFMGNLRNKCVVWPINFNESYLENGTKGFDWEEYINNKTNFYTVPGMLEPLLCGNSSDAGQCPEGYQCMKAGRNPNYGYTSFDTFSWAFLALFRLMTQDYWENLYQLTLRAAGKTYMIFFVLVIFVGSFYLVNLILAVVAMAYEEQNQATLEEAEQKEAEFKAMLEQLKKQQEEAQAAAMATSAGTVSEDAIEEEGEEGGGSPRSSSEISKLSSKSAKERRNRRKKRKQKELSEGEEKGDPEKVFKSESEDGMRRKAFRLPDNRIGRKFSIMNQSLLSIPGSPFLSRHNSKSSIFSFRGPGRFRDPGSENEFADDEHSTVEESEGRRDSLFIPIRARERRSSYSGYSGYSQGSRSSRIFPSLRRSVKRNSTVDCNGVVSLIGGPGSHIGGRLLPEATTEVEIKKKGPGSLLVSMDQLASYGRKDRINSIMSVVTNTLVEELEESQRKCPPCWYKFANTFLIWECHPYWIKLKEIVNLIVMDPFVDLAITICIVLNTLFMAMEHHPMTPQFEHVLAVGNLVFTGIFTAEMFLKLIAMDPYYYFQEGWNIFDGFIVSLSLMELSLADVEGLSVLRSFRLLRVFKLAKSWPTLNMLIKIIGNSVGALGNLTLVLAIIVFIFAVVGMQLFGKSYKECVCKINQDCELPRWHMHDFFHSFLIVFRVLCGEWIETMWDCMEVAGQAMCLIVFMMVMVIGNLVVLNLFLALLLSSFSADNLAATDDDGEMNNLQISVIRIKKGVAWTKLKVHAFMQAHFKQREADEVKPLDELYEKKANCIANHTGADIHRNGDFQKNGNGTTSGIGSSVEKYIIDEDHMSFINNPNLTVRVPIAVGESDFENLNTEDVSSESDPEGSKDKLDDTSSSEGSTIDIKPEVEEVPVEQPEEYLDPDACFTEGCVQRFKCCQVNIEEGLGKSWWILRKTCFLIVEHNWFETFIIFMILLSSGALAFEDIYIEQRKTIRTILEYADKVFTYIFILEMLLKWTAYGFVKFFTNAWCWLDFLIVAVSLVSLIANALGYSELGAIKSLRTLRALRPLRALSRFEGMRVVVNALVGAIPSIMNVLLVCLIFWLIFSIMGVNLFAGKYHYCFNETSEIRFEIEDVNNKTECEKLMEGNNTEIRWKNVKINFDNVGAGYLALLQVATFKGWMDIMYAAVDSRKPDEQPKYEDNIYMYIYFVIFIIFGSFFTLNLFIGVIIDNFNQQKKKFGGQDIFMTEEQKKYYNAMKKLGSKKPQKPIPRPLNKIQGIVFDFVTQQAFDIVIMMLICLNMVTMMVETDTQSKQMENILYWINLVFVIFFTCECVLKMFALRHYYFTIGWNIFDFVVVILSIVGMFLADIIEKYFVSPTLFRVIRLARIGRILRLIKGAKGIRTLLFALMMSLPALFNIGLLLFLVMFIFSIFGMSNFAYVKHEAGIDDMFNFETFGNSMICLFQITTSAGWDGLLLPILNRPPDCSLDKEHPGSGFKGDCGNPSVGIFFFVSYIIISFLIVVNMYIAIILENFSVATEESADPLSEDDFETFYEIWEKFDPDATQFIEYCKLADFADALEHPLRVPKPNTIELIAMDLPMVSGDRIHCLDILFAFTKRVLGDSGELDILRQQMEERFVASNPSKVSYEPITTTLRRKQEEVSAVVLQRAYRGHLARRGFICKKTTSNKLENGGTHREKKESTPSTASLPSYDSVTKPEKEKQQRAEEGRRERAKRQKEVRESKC
Data set [5] has as its target T1, NaV1.5. The experiment in a line: Electrophysiological Assay (EP), patch voltage clamp, NaV1.5. The conditions noted are these: HEK-293 cells, whole-cell patch clamp, inactivated state; arithmetic mean. Format: cell-based. Here is the method:
Sodium currents were measured using the patch clamp technique in the whole-cell configuration using either a PatchXpress automated voltage clamp or manually using an Axopatch 200B (Axon Instruments) or Model 2400 (A-M systems) amplifier.
In some studies, the external sodium was reduced by equimolar replacement with choline. […] All recordings were performed at ambient temperature in a bath chamber with a volume of 150 μL. Control sodium currents were measured in 0.5% DMSO. Controls and representative compounds of the invention were applied to the recording chamber through a 4-pinch or 8-pinch valve bath perfusion system manufactured by ALA Scientific Instruments.
Series resistance compensation was applied (60-80%). […] All statistics in this study are given as mean±SD.
The membrane potential was maintained at a voltage where inactivation of the channel is complete. The voltage is then stepped back to a very negative (Vhold=−150 mV) voltage for 20 ms and then a test pulse is applied to quantify the compound block. […] The percent decrease in sodium current following wash-on of compound was taken as the percent block of sodium channels.

Data set [6] has as its target T3, NaV1.6. The experiment in a line: Sodium Influx Assay (Flux), NaV1.6. The conditions noted are these: read-out: Flux NaV1.6 IC50; Trex HEK293 cells, ANG2 dye; arithmetic mean.
For data set [7], the target named is T2, NaV1.1. The experiment in a line: Sodium Influx Assay (Flux), NaV1.1. Type of data set: cell-based. To be noted: Trex HEK293 cells, ANG2 dye; arithmetic mean.

Structures can show the parent of a compound that is named as a salt.

T1 sequence (Q14524 other isoform, or with tags, fused parts or gaps): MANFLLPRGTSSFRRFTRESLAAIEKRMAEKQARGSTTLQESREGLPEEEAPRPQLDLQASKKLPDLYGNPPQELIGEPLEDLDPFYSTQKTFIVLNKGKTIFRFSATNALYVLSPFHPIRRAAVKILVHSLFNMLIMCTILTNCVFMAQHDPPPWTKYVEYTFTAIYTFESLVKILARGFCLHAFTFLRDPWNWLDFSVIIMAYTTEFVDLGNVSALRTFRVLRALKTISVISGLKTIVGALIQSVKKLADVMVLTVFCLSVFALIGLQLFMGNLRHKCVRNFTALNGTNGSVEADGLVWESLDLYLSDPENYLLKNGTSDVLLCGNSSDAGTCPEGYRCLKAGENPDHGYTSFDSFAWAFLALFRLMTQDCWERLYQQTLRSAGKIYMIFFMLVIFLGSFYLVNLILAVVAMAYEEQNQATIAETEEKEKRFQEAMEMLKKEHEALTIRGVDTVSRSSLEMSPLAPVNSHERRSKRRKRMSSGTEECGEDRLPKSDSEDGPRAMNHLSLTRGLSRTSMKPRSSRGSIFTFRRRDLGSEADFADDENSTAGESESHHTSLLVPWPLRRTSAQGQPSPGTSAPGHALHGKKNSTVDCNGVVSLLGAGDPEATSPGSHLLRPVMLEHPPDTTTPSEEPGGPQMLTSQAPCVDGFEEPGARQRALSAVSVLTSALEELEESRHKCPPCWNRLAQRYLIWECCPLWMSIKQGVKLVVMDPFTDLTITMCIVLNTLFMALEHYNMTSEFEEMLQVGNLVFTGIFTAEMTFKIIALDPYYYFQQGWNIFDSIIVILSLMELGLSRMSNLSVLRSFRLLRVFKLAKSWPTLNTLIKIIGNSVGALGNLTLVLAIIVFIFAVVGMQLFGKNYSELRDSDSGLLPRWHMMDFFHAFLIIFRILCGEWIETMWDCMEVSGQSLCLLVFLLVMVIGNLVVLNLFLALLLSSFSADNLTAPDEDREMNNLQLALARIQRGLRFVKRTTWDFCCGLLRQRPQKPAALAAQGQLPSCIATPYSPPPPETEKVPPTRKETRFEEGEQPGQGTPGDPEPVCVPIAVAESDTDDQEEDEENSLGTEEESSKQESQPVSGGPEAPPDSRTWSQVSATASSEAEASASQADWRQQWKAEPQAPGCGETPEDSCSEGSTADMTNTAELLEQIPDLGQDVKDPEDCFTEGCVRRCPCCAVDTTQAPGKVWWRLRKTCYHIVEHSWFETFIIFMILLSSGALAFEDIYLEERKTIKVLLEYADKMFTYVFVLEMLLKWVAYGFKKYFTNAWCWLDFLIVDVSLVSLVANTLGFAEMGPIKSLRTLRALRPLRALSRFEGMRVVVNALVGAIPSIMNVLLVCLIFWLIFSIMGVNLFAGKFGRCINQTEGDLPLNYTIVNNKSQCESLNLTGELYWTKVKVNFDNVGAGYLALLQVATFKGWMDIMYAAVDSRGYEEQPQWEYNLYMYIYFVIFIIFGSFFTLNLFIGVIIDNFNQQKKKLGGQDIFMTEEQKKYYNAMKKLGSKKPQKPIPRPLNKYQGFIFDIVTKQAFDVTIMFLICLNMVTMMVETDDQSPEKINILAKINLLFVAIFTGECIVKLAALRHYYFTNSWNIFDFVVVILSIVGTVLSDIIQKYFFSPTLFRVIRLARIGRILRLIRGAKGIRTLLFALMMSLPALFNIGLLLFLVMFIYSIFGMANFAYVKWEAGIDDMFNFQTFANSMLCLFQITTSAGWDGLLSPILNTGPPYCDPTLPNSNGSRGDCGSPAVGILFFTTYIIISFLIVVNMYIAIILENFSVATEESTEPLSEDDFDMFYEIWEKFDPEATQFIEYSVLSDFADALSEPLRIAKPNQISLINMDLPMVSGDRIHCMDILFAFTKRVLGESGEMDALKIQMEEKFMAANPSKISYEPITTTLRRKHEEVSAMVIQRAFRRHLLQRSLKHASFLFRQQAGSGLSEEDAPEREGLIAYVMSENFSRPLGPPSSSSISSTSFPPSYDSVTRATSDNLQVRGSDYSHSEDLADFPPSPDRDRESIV

As usually defined, the IC50 is the point on the concentration scale where inhibition reaches its midpoint. On to `C[C@@H]1[C@H](N(C)c2cc(F)c(S(=O)(=O)Nc3cscn3)cc2Cl)CCN1Cc1ccccc1` (racemic) [Example 309, rac-4-(((2R,3R)-1-benzyl-2-methylpyrrolidin-3-yl)(methyl)amino)-5-chloro-2-fluoro-N-(thiazol-4-yl)benzenesulfonamide], for which, at NaV1.5 [1], the 50% inhibitory concentration (IC50) at 1 h is 7.35 µM.

For the compound `CN(c1ccc(S(=O)(=O)Nc2ncns2)cc1Cl)[C@H]1CCN(Cc2ccccc2)C1` [Example 29, (S)-4-((1-benzylpyrrolidin-3-yl)(methyl)amino)-3-chloro-N-(1,2,4-thiadiazol-5-yl)benzenesulfonamide hydrochloride salt], the IC50 at NaV1.5 [2] was 29.5 µM; on NaV1.1 [3], above 10 µM; on NaV1.6 [4], 0.06 µM; at NaV1.5 [5], above 10 µM; at NaV1.6 [6] it was 0.244 µM; at NaV1.1 [7], above 30 µM.

On to `CN(c1cc(F)c(S(=O)(=O)Nc2cscn2)cc1Cl)[C@H]1CCN(Cc2ccccc2)C1` [Example 38, (S)-4-((1-benzylpyrrolidin-3-yl)(methyl)amino)-5-chloro-2-fluoro-N-(thiazol-4-yl)benzenesulfonamide 2,2,2-trifluoroacetate], for which the IC50 at NaV1.5 [2] was 26.3 µM; against NaV1.1 [3], above 10 µM; at NaV1.6 [4], 0.803 µM; at NaV1.5 [5], above 30 µM; at NaV1.6 [6] it was 1.94 µM; against NaV1.1 [7], 17.9 µM.

Take `O=S(=O)(Nc1nccs1)c1ccc(N[C@@H]2CCN(Cc3ccccc3F)C2)c(Cl)c1` [Example 71, (R)-3-chloro-4-((1-(2-fluorobenzyl)pyrrolidin-3-yl)amino)-N-(thiazol-2-yl)benzenesulfonamide]: the IC50 is 9.27 µM at NaV1.5 [2], 0.863 µM on NaV1.5 [5], 1.26 µM on NaV1.6 [6] and 3.35 µM against NaV1.1 [7].

Turning to `Cc1c(N(C)[C@H]2CCN(Cc3ccccc3)C2)cc(F)c(S(=O)(=O)Nc2cscn2)c1F` [Example 103, (S)-4-((1-benzylpyrrolidin-3-yl)(methyl)amino)-2,6-difluoro-3-methyl-N-(thiazol-4-yl)benzenesulfonamide 2,2,2-trifluoroacetate], the IC50 on NaV1.5 [2] is 28.2 µM; against NaV1.1 [3], 40.9 µM; against NaV1.6 [4], 0.017 µM; against NaV1.5 [5], above 10 µM; at NaV1.6 [6] it was 0.061 µM; against NaV1.1 [7], 28.5 µM.

As to `CN(c1ccc(S(=O)(=O)Nc2cscn2)cc1Cl)[C@H]1CCN(Cc2cc(Cl)ccc2F)C1` [Example 254, (S)-3-chloro-4-((1-(5-chloro-2-fluorobenzyl)pyrrolidin-3-yl)(methyl)amino)-N-(thiazol-4-yl)benzenesulfonamide formate], the IC50 at NaV1.5 [2] stood at 0.962 µM; against NaV1.5 [5], 17 µM; on NaV1.6 [6], 1.16 µM; against NaV1.1 [7] it was 2.32 µM.

With `Cc1c(N(C)[C@H]2CCN(Cc3ccccc3)C2)cc(F)c(S(=O)(=O)Nc2cccc(F)n2)c1F` [Example 298, (S)-4-((1-benzylpyrrolidin-3-yl)(methyl)amino)-2,6-difluoro-N-(6-fluoropyridin-2-yl)-3-methylbenzenesulfonamide formate], the IC50 at NaV1.5 [2] was above 30 µM; on NaV1.1 [3], above 10 µM; against NaV1.6 [4], 0.043 µM; at NaV1.5 [5] it was above 10 µM; at NaV1.6 [6], 0.079 µM; against NaV1.1 [7] it was 26 µM.
